Read-outs that look alike come from different tables or passages of the source.
Tests used:
[1] = Cytotoxicity assay on L929 fibroblasts (AlamarBlue); format: cell-based; settings: mouse
Procedure: (§1) Mammalian cell cultures - L929 fibroblast lineage were cultured in Roswell Park Memorial Institute 1640 medium without phenol red (RPMI - Sigma-Aldrich, St. Louis, MO, USA), supplemented with 10% foetal bovine serum (FBS - Cultilab - SP - Brazil) and 2 mM glutamine (Sigma-Aldrich, St. Louis, MO, USA) with pH 7.2 - 7.4, as previously reported.[21] H9C2, cardiomyoblast cultures, were maintained in Dulbecco’s Modified Eagle’s Medium (DMEM) high glucose (4500 mg/L) medium supplemented (Sigma-Aldrich, St. Louis, MO, USA) with 10% FBS (Cultilab - SP -Brazil), 2 mM glutamine (Sigma-Aldrich, St. Louis, MO, USA) and 100 μg/mL penicillin/streptomycin (Sigma-Aldrich, St. Louis, MO, USA).[22] Both cell cultures maintained at 37 °C under an atmosphere of 5% CO2, with weekly dissociation protocol using 0.01% trypsin.
(§2) Cytotoxicity assay - The toxicity of the compounds was evaluated on two mammalian cell lines (L929 and H9C2), as reported.[21] The cells were seeded in 96-well plates (4 x 10^3 cells/well - for L929; 25x10^3 cells/well - for H9C2) and incubated at 37 °C and 5% CO2. The L929 cultures were kept under treatment for 96 and 168 h with a serial dilution (1:2) of the compounds (up to 400 μM). After the treatment periods, the AlamarBlue® reagent (Thermo Fisher Scientific Inc) was added and incubated for 24 h. The H9C2 cultures were also treated in serial dilution up to 200 μM for 24 h. PrestoBlue® reagent (Thermo Fisher Scientific Inc) was added to the cultures and incubated for 3 h. All plates were analysed in the spectrophotometer SpectraMaxM3 (570 and 600 nm) and LC50 values (concentration capable of inducing loss of viability in 50% of the cells) determined.[21] All assays were done at least twice, in triplicates.

in vitro = format: cell-based; settings: rat, Toxicity on H9C2 mammalian cells LC50
Procedure: as §1, §2

[2] = system: T. cruzi intracellular forms (Tulahuen strain) in L929 cell lines; assay: Drug combination (fixed-ratio, FICI) on intracellular forms of T. cruzi; format: cell-based, Trypanosoma cruzi; design: Drug concentration (EC50 in fixed-ratio series): unit not given here
Procedure: Drug combination on intracellular forms of T. cruzi - L929 were seeded in 96-well plates (4 x 10^3 cells/well) and infected with T. cruzi (Tulahuen strain). Predetermined EC50 values were used to determine the top concentrations of the test compounds under fixed ratios ensuring that EC50 fell in the midpoint of a seven-point two-fold dilution series. The fixed ratios were 5:0, 4:1, 3:2, 2:3, 1:4 and 0:5.[24] ^, [25] According to Odds (2003), the Fractional Inhibitory Concentration Indexes (FICI) was calculated by the ratio of the EC50 values of each ratio of the combinations/EC50 of each compound alone. Finally, the sum of the FICIs (ƩFICI) is calculated to classify the interaction nature of the combinations.[26] ΣFICI ≤ 0.5 = Synergism; ΣFICI between 0.5 and 4 = additive (No interaction); ΣFICI > 4 = antagonism. At least two independent experiments were performed in triplicate.

T. cruzi satDNA = assay: In vivo efficacy by qPCR (T. cruzi satDNA) in blood and heart; design: species or system Swiss male mice; settings: for qPCR on blood samples, parasite DNA amplification: first trial, surviving mice: BZ 25 mg/kg/day, BTZ 45.61 mg/kg/day; for qPCR on blood samples, animals that amplified parasite DNA: second trial, higher doses: BZ 100, BTZ 182.44 mg/kg/day
Procedure: In vivo efficacy assessments by qPCR evaluations - At the end point, the animals were weighed; euthanised and submitted to cardiac puncture. 500 μL of fresh blood was collected and added to 1 mL of guanidine. The DNA was extracted from 300 μL of guanidine-EDTA blood, using the kit High Pure PCR Template Preparation (Roche diagnostics, Mannhein, Germany), according to the manufacturer's instructions. At the last step of the protocol, DNA was eluted in 100 μL of elution buffer. Also, cardiac tissues were collected, weighed and fragmented using a scalpel, 200 μL of Tissue Lysis Buffer was added and samples immediately placed in Styrofoam with dry ice. Blood and heart tissues were stored in the freezer at […] until analysis by qPCR. Heart tissues were homogenised using a Tissue Homogeneizer (Qiagen). DNA was extracted using the kit High Pure PCR Template Preparation (Roche diagnostics, Mannhein, Germany), according to the manufacturer's instructions for tissue samples. qPCR was done using a TaqMan multiplex assay, targeting T. cruzi […] and mouse GAPDH, as an endogenous control, and to normalise the parasite load. To obtain standard curves, serial dilutions of the DNA were prepared in appropriate plates for the assay. After normalising the results obtained on the samples, the parasite load was expressed as parasite equivalents/mL when evaluated in blood, or parasite equivalents/mg when in mouse tissue. In all trials, positive and negative controls were also tested in parallel.

| SMILES | CC50 at 96 h [1] [µM] | CC50 at 168 h [1] [µM] | CC50 at 24 h (in vitro) [µM] | FICI ([2]; proportion BTZ:BZ 0:5) | Drug concentration (EC50 in fixed-ratio series) ([2]; proportion BTZ:BZ 1:4) | FICI ([2]; proportion BTZ:BZ 1:4) | Drug concentration (EC50 in fixed-ratio series) ([2]; proportion BTZ:BZ 2:3) | FICI ([2]; proportion BTZ:BZ 2:3) | Drug concentration (EC50 in fixed-ratio series) ([2]; proportion BTZ:BZ 3:2) | FICI ([2]; proportion BTZ:BZ 3:2) | Drug concentration (EC50 in fixed-ratio series) ([2]; proportion BTZ:BZ 4:1) | FICI ([2]; proportion BTZ:BZ 4:1) | FICI ([2]; proportion BTZ:BZ 5:0) | qPCR on blood samples, parasite DNA amplification (T. cruzi satDNA) | qPCR on blood samples, animals that amplified parasite DNA (T. cruzi satDNA) | also measured |
| --- | --- | --- | --- | --- | --- | --- | --- | --- | --- | --- | --- | --- | --- | --- | --- | --- |
| Clc1ccc(CCC(Cn2ccnc2)Sc2c(Cl)cccc2Cl)cc1 (stereo not drawn) [BTZ, butoconazole] | 23.9 ± 1.1 | 17.5 ± 3.24 | 36 ± 0.25 | 0 | 0.008 | 0.26 | 0.012 | 0.37 | 0.006 | 0.20 | 0.024 | 0.76 | 1 | negative (three of three animals) | only one animal | EC50 at 168 h [1]: 24 µM; Drug concentration (EC50 in fixed-ratio series) ([2]; proportion BTZ:BZ 5:0): 0.031; mice with negative qPCR in cardiac samples (T. cruzi satDNA; BTZ 184 mg/kg/day as printed): two of five |
| O=C(Cn1ccnc1[N+](=O)[O-])NCc1ccccc1 [BZ, benznidazole] | > 400 | > 200 | > 200 | 1 | 0.138 | 0.10 | 0.219 | 0.15 | 0.402 | 0.28 | 0.738 | 0.51 | 0 | parasite DNA was amplified in all animals | only one animal | EC50 at 168 h ([1]; L929 fibroblast cells, printed in the 168 h column, read-out: Cytotoxicity on L929 cells pEC50 (converted)): > 200 µM; Drug concentration (EC50 in fixed-ratio series) ([2]; proportion BTZ:BZ 0:5): 1.445; negative qPCR in cardiac samples (T. cruzi satDNA; BZ 100 mg/kg/day): 100% |
